From patent publication US20080058356A1, “2,6 Bisheteroaryl-4-Aminopyrimidines as Adenosine Receptor Antagonists” (Neurocrine Biosciences, Inc., priority 2003, published 2008)

SMILES | melting point [°C]
CCC(=O)Nc1cc(-c2cccnc2)nc(-c2ccco2)n1 [Example 54, N-[2-(2-Furyl)-6-pyridin-3-ylpyrimidin-4-yl]propanamide] | 251.8 to 253.2
Nc1cc(-n2cccn2)nc(-c2ccc(Cl)o2)n1 [Example 50, 2-(5-Chloro-2-furyl)-6-(1H-pyrazol-1-yl)pyrimidin-4-amine] | 209.9 to 211
c1coc(-c2nc(NCC3CC3)cc(-n3cccn3)n2)c1 [Example 119, N-(Cyclopropylmethyl)-2-(2-furyl)-6-(1H-pyrazol-1-yl)pyrimidin-4-amine] | 100.9 to 101.7
NCCNc1cc(-n2cccn2)nc(-c2ccco2)n1 [Example 122, N-[2-(2-Furyl)-6-(1H-pyrazol-1-yl)pyrimidin-4-yl]ethane-1,2-diamine] | 104.1 to 105.1
Nc1cc(-c2cccnc2)nc(-c2ccco2)n1 [Example 55, 2-(2-Furyl)-6-pyridin-3-ylpyrimidin-4-amine] | 232.7 to 233.1
CCC(=O)Nc1cc(-n2cccn2)nc(-c2ccc(Cl)o2)n1 [Example 51, N-[2-(5-Chloro-2-furyl)-6-(1H-pyrazol-1-yl)pyrimidin-4-yl]propanamide] | 189.3 to 190.1
c1ccc(CCNc2cc(-n3cccn3)nc(-c3ccco3)n2)nc1 [Example 125, 2-(2-Furyl)-6-(1H-pyrazol-1-yl)-N-[2-(pyridin-2-yl)ethyl]pyrimidin-4-amine] | 110.2 to 110.9

Next, values leading:

melting point [°C] | SMILES
129.9 to 130.8 | OCCCNc1cc(-n2cccn2)nc(-c2cccs2)n1 [Example 131, 3-{[6-(1H-Pyrazol-1-yl)-2-(2-thienyl)pyrimidin-4-yl]amino}propan-1-ol]
116.2 to 117.3 | COc1ccc(CCNc2cc(-n3cccn3)nc(-c3cccs3)n2)cc1OC [Example 134, N-[2-(3,4-Dimethoxyphenyl)ethyl]-6-(1H-pyrazol-1-yl)-2-(2-thienyl)pyrimidin-4-amine]
147.8 to 148.5 | COc1ccc(COC(=O)Nc2cc(-n3cccn3)nc(-c3ccco3)n2)cc1OC [Example 202, 3,4-Dimethoxybenzyl [2-(2-furyl)-6-(1H-pyrazol-1-yl)pyrimidin-4-yl]carbamate]
90 to 91.9 | c1ccc([C@H]2C[C@@H]2Nc2cc(-c3ccco3)nc(-c3nccs3)n2)cc1 (relative stereo) [Example 198, 6-(2-Furyl)-N-[(1S*,2R*)-2-phenylcyclopropyl]-2-(1,3-thiazol-2-yl)pyrimidin-4-amine]
146.6 to 147.1 | NCCNc1cc(-n2cccn2)nc(-c2cccs2)n1 [Example 132, N-(2-Aminoethyl)-N-[6-(1H-pyrazol-1-yl)-2-(2-thienyl)pyrimidin-4-yl]amine]
83 to 83.8 | COc1ccc(CCNc2cc(-c3ccco3)nc(-c3nccs3)n2)cc1OC [Example 196, N-[2-(3,4-Dimethoxyphenyl)ethyl]-6-(2-furyl)-2-(1,3-thiazol-2-yl)pyrimidin-4-amine]
